These molecules were tested on HCV (assay: Inhibition effects of compounds on HCV in Huh7.5 cultured cell after HCV infection). Details: HCV-infected Huh7.5 cells, 200 μg/mL, Western blotting (FIG. 7B).
Type: cell-based
Procedure: 1×10^5/ml Huh7.5 cells (purchased from Vertex Pharmaceutical Co., USA) were inoculated in an amount of 0.1 ml on 96-well culture plate, placed in an incubator with 37° C., 5% CO2 content and saturation humidity, and cultured for 24 h, HCV virus in 45 IU/cell was used to infect Huh7.5, different drug solutions (DM122) formulated with culture medium were added, and cell control and HCV infection control were set. Cultivation was continuously performed in the incubator with 37° C., 5% CO2 content and saturation humidity for 72 h, kit for RNA extraction was used to extract intracellular RNA, one-step qRT-PCR was used to determine intracellular contents of HCV and GAPDH RNA, and the inhibition effects of drug on HCV infection was analyzed. […] In comparison with the virus control group, the inhibition effects on HCV infection upon action of different drugs were analyzed. […] This experiment was repeated for 3 times, * indicated […] in comparison with control, ** indicated p<0.01 in comparison with control.

For CC(Cl)C(=O)OC1CC2C3CCCN4CCCC(CN2C(=O)C1O)C34 (stereo not shown) [Compound 9g, 14-hydroxyl-13-2-chloropropionyloxy matrine], the “anti-HCV activity (HCV nucleoprotein and Hsc70 protein levels)” value was “significant activity on anti-HCV”.
α-interferon was tested, and the “anti-HCV activity (HCV nucleoprotein and Hsc70 protein levels)” value was “capable of inhibiting HCV replication”.

The molecules below were run on Hsc70 (assay: Detection of Hsc70 gene expression level upon action of compound on 2.2.15 cells (real-time fluorescent quantified PCR)). Details: 2.2.15 cells; down-regulation of liver cell Hsc70 gene.
Type: cell-based
Design: Hsc70 mRNA / Hsc70 down-regulation rate (%): unit not given here
Procedure: 2.2.15 cells (purchased from Vertex Pharmaceutical Co., USA) in a number of 1×10^6 were inocubated to 6-well plate, cultured in a culture medium containing 10% fetal calf serum for 24 hr, the original culture medium was discarded, replaced with a culutre medium containing 400 μg/ml OMTR, which was used as control. Compounds were firstly dissolved in MEM to form 20 mg/ml mother liquid, which was diluted with culture medium when used and then applied to cells. The compounds of Examples 1-114 were separately used for treatment for 12, 24, 36 hr, then cells were harvested for extraction of RNA and DNA, then the changes of Hsc70 mRNA and HBV DNA were detected by real-time fluorescent quantified PCR.

In order of falling “Hsc70 mRNA” value:
1. O=C(CCl)OC1CC2C3CCCN4CCCC(CN2C(=O)C1O)C34 (stereo not shown) [Compound 9f, 14-hydroxyl-13-chloroacetyloxy matrine]  88.2 ± 0.21
2. O=C1CCC[C@@H]2[C@H]3CCC[N+]4([O-])CCC[C@@H](CN12)[C@@H]34 (stereo partly shown) [Compound 1, reference compound]  55.0 ± 0.10
3. CC(=O)OC1CC2C3CCCN4CCCC(CN2C(=O)C1O)C34 (stereo not shown) [Compound 9j, 14-hydroxyl-13-acetyloxy matrine]  54.8 ± 0.21
4. O=C1CCC[C@@H]2[C@H]3CCCN4CCC[C@@H](CN12)[C@@H]34 [Compound 2, reference compound]  52.4 ± 0.17
5. O=C(OC1CC(=O)N2C[C@@H]3CCCN4CCC[C@@H]([C@H]34)[C@H]2C1)c1ccccc1 (stereo partly shown) [Compound 6d, 13-benzoyloxy matrine]  51.0 ± 0.11
6. COC1CC(=O)N2CC3CCCN4CCCC(C34)C2C1 (stereo not shown) [Compound 6a, 13-methoxy matrine]  48.6 ± 0.16
7. CC(Cl)C(=O)OC1CC2C3CCCN4CCCC(CN2C(=O)C1O)C34 (stereo not shown) [Compound 9g, 14-hydroxyl-13-2-chloropropionyloxy matrine]  48.6 ± 0.11
8. O=C1C(OCc2ccccc2)C(OCc2ccccc2)CC2C3CCCN4CCCC(CN12)C34 (stereo not shown) [Compound 9b, 13,14-dibenzyloxy matrine]  45.4 ± 0.11
9. O=C(OC1CC2C3CCCN4CCCC(CN2C(=O)C1O)C34)c1ccc(F)c([N+](=O)[O-])c1 (stereo not shown) [Compound 9i, 14-hydroxyl-13-(4-fluoro-3-nitro)benzoyloxy matrine]  43.4 ± 0.08
10. CNC1CC(=O)N2C[C@@H]3CCCN4CCC[C@@H]([C@H]34)[C@H]2C1 (stereo partly shown) [Compound 7b, 13-methylaminomatrine]  40.1 ± 0.09
11. COC1CC2C3CCCN4CCCC(CN2C(=O)C1OC)C34 (stereo not shown) [Compound 9a, 13,14-dimethoxy matrine]  39.3 ± 0.20
12. CC(=O)OC1CC2C3CCCN4CCCC(CN2C(=O)C1O)C34 (stereo not shown) [Compound 9e, 14-hydroxyl-13-acetyloxy matrine]  37.1 ± 0.16
13. O=C1CC(C[N+](=O)[O-])CC2C3CCCN4CCCC(CN12)C34 (stereo not shown) [Compound 7a, 13-nitromethyl matrine]  35.8 ± 0.09
14. O=C(OC1CC2C3CCCN4CCCC(CN2C(=O)C1O)C34)c1ccccc1 (stereo not shown) [Compound 9h, 14-hydroxyl-13-benzoyloxy matrine]  34.5 ± 0.10
15. O=C(OC1CC2C3CCCN4CCCC(CN2C(=O)C1OC(=O)c1ccc(F)c([N+](=O)[O-])c1)C34)c1ccc(F)c([N+](=O)[O-])c1 (stereo not shown) [Compound 9d, 13,14-di(4-fluoro-3-nitro) benzoyloxy matrine]  30.8 ± 0.06
16. O=C1CC(OCc2ccccc2)CC2C3CCCN4CCCC(CN12)C34 (stereo not shown) [Compound 6c, 13-benzyloxy matrine]  24.7 ± 0.10
17. O=C1C=CCC2C3CCCN4CCCC(CN12)C34 (stereo not shown) [Compound 3, reference compound]  21.6 ± 0.13
18. O=C1C=CCC2C3CCC[N+]4([O-])CCCC(CN12)C34 (stereo not shown) [Compound 4, oxidized sophocarpine]  15.3 ± 0.21

For 13,14-diacetyloxy matrine [Compound 9c], the “Hsc70 mRNA” value was less than 10.

Same assay, conditions: 2.2.15 cells; relative to OMT (= 1)

In order of rising “Hsc70 inhibition rate (down-regulation of Hsc70 expression activity, expressed in relative OMT ratio)” value:
1. O=CN1CC2CCCN3CCCC(C1CCCC(=O)O)C23 (stereo not shown) [DM-106a, N-formylmatrinic acid]  −54
2. O=C(O)CCCC1C2CCCN3CCCC(CN1CC1CC1)C23 (stereo not shown) [DM-115, N-cyclopropylmethyl matrinic acid]  −33
3. O=C1CCC[C@@H]2[C@H]3CCCN4CCC[C@@H](CN12)[C@@H]34 [MT, Matrine]  −16
4. O=C(O)CCCC1C2CCCN3CCCC(CN1C(=O)CCl)C23 (stereo not shown) [DM-104, N-chloroacetyl matrinic acid]  −7
5. Cc1cccc(OCC(=O)N2CC3CCCN4CCCC(C34)C2CCCC(=O)O)c1 (stereo not shown) [DM-104a, N-(2-m-methylphenoxy)acetyl matrinic acid]  −2.98
6. N-oxidized kurarinol [DM-2001]  −0.42
7. N,N-dimethyl oxymatrinic acid [DM-1111]  −0.25
8. C[N+]1(C)CC2CCCN3CCCC(C23)C1CCCC(=O)[O-] (stereo not shown) [DM-111, N,N-dimethyl matrinic acid]  0.25
9. O=C(O)CCCC1C2CCC[N+]3([O-])CCCC(CN1CC1CC1)C23 (stereo not shown) [DM-1151, N-cyclopropylmethyl oxymatrinic acid]  0.52
10. C=C(C)[C@H](CCC(C)(C)O)Cc1c(O)cc(OC)c2c1O[C@H](c1ccc(O)cc1O)CC2=O [DM-200, kurarinol]  0.81
11. O=C(O)CCCC1C2CCCN3CCCC(CN1CCO)C23 (stereo not shown) [DM-117, N-(2-hydroxyl)ethyl matrinic acid]  0.84
12. O=C(O)CCCC1NCC2CCC[N+]3([O-])CCCC1C23 (stereo not shown) [DM-1001, N-oxidized matrinic acid]  0.92
13. O=C1CCC[C@@H]2[C@H]3CCC[N+]4([O-])CCC[C@@H](CN12)[C@@H]34 (stereo partly shown) [OMT, Oxymatrine, reference compound]  1
14. O=C(O)CCCC1C2CCCN3CCCC(CN1C(=O)c1ccccc1)C23 (stereo not shown) [DM-107, N-benzoyl matrinic acid]  1.04
15. COc1cccc(CN2CC3CCCN4CCCC(C2CCCC(=O)O)C34)c1 (stereo not shown) [DM-142, N-(3-methoxy)benzyl matrinic acid]  1.07
16. Cc1ccc(S(=O)(=O)N2CC3CCCN4CCCC(C34)C2CCCC(=O)O)cc1 (stereo not shown) [DM-102, N-(4-methylbenzenesulfonyl) matrinic acid]  1.1
17. O=C(O)CCCC1C2CCCN3CCCC(CN1Cc1ccccc1)C23 (stereo not shown) [DM-108, N-benzylmatrinic acid]  1.25
18. O=C(O)CCCC1C2CCC[N+]3([O-])CCCC(CN1Cc1ccccc1)C23 (stereo not shown) [DM-1081, N-benzyl oxymatrinic acid]  1.26
19. COc1ccc(CN2CC3CCC[N+]4([O-])CCCC(C2CCCC(=O)O)C34)cc1 (stereo not shown) [DM-1221, N-(4-methoxybenzyl) oxymatrinic acid]  1.34
20. Cc1cccc(OC(C)C(=O)N2CC3CCCN4CCCC(C34)C2CCCC(=O)O)c1 (stereo not shown) [DM-106, N-(2-m-methylphenoxy)propionylmatrinic acid]  1.67

O=C(O)CCCC1C2CCCN3CCCC(CN1S(=O)(=O)c1ccccc1)C23 (stereo not shown) [DM-109, N-benzenesulfonyl matrinic acid] was tested, and the “Hsc70 inhibition rate (down-regulation of Hsc70 expression activity, expressed in relative OMT ratio)” value was less than 10.
In the case of CCCN1CC2CCCN3CCCC(C1CCCC(=O)O)C23 (stereo not shown) [DM-113, N-propyl matrinic acid], the “Hsc70 inhibition rate (down-regulation of Hsc70 expression activity, expressed in relative OMT ratio)” value is reported as less than 10.
In the case of O=C(O)CCCC1C2CCCN3CCCC(CN1C(=O)C=Cc1ccccc1)C23 (stereo not shown) [DM-110, N-cinnamoyl matrinic acid], the “Hsc70 inhibition rate (down-regulation of Hsc70 expression activity, expressed in relative OMT ratio)” value is reported as less than 10.
With CCN1CC2CCCN3CCCC(C1CCCC(=O)O)C23 (stereo not shown) [DM-112, N-ethyl matrinic acid] the “Hsc70 inhibition rate (down-regulation of Hsc70 expression activity, expressed in relative OMT ratio)” value was less than 10.
For O=C(O)CCCC1C2CCCN3CCCC(CN1C(=O)CO)C23 (stereo not shown) [DM-105, N-(2-hydroxyl)acetylmatrinic acid], the “Hsc70 inhibition rate (down-regulation of Hsc70 expression activity, expressed in relative OMT ratio)” value was less than 10.
